Common to all, as to assay: inhibition of tumour cell growth, NCI panel, 48 h
Assay [1] deals with 786-0.
The test system of assay [2] is A498.
Assay [3] concerns BT-549.
The subject of assay [4] is DU-145.
Assay [5] deals with EKVX.
For assay [6], the system named is HCT-15.
The subject of assay [7] is HOP-62.
In assay [8] the test system is M14.
Assay [9] has as its system Malme-3M.
Assay [10] deals with NCI/ADR-RES.
Assay [11] relates to OVCAR-3.
The test system of assay [12] is OVCAR-4.
Assay [13] relates to OVCAR-5.
In assay [14] the test system is PC-3.
Assay [15] deals with RXF 393.
Assay [16] concerns SF-268.
For assay [17], the system named is SF-295.
In assay [18] the test system is SF-539.
In assay [19] the test system is SK-OV-3.
Assay [20] deals with T47D.

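Tested at 5 concentrations; 48 h exposure; 96-well plates; endpoints linearly interpolated, else capped at highest concentration. GI50 marks 50% less growth.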 Active and inactive are the calls of the source. No stated cut-off is given here; in the data, active = GI50 up to about 1.1 µM and inactive = higher. A value given as a limit tells only on which side of the number the result lay.

`CCOc1ccc(/N=N/c2ccc3cc(/C(C)=N/NC(=O)/C(C#N)=C\c4ccc(N(CCC#N)CCC#N)cc4)c(=O)oc3c2)cc1`: the GI50 in assay [1] was > 10 µM (inactive); in [2] it was > 10 µM (inactive); in assay [3], > 10 µM (inactive); in [4], > 10 µM (inactive); in assay [5], > 10 µM (inactive); in assay [6], above 10 µM. For the same molecule, the GI50 in assay [7], in [8], in [9], in assay [10], in assay [11] and in assay [12] was > 10 µM (inactive) in each case. The GI50 in assay [13], in [14], in assay [15], in assay [16], in assay [17] and in assay [18] was > 10 µM (inactive) throughout. The GI50 in assay [19] and in assay [20] was > 10 µM (inactive) each time.

As for `COC(=O)c1c2c(cc3c1CC1(C3)Cc3ccc4c(c3C1=O)CCC4)CCC2` (stereo not given), the GI50 is 3.51 µM (inactive) in assay [1]; 3.42 µM (inactive) in assay [2]; 2.52 µM (inactive) in assay [3]; 4.65 µM (inactive) in assay [4]; 8.17 µM (inactive) in assay [5]; 3.58 µM in assay [6]. The GI50 in assay [7] is 3.25 µM (inactive); in [8], 3.03 µM (inactive); in assay [9], 3.39 µM (inactive); in assay [10], 1.92 µM (inactive); in [11] it was 1.94 µM (inactive); in assay [12], 10.2 µM (inactive). Further, the GI50 in assay [13] is > 21.1 µM (inactive); in assay [14], 1.79 µM (inactive); in [15] it was 0.537 µM (active); in assay [16], 6.31 µM (inactive); in assay [17], 2.12 µM (inactive); in [18], 2.38 µM (inactive). Moreover, the GI50 in assay [19] was 3.93 µM (inactive); in assay [20], 5.13 µM (inactive).

For the molecule `CC(=O)Oc1ccc(C(c2ccc(OC(C)=O)cc2)c2ccccn2)cc1` [BISACODYL], the GI50 is > 91.6 µM (inactive) in [1]; 59 µM (inactive) in [2]; 0.0843 µM (active) in assay [3]; > 84.3 µM (inactive) in [4]; 18.8 µM (inactive) in [5]; 39.7 µM in assay [6]. For the same molecule, the GI50 in [7] is > 92.7 µM (inactive); in [8], > 93.5 µM (inactive); in assay [9], 78.5 µM (inactive); in assay [10] it was 1.32 µM (inactive); in [11] it was 0.219 µM (active); in [12] it was 0.146 µM (active). Also, the GI50 in assay [13] was 22.1 µM (inactive); in assay [14], 26.5 µM (inactive); in assay [15] it was 13.8 µM (inactive); in assay [16] it was > 100 µM (inactive); in [17], 64.3 µM (inactive); in assay [18] it was > 91.2 µM (inactive). For the same molecule, the GI50 in assay [19] is 59.4 µM (inactive); in [20] it was 0.228 µM (active).

With `CNC(=O)CNC(=O)C(Cc1ccc(NC(=O)CCCCC(C)=O)cc1)NC(=O)C(CCC(=O)OCc1ccccc1)NC(=O)OC(C)(C)C` (stereo not given), the GI50 was > 100 µM (inactive) in assay [1]; 48.3 µM (inactive) in assay [2]; > 100 µM (inactive) in assay [3]; > 100 µM (inactive) in [4]; > 100 µM (inactive) in assay [5]; above 100 µM in [6]. Further, the GI50 in assay [7], in assay [8], in assay [9], in [10], in assay [11] and in assay [12] was > 100 µM (inactive) throughout. For the same molecule, the GI50 in assay [13], in assay [14], in [15], in [16], in [17] and in assay [18] was > 100 µM (inactive) throughout. For the same molecule, the GI50 in assay [19] and in assay [20] was > 100 µM (inactive) each time.

Consider `COC(=O)c1c(C)c2c(c(C)c1C(=O)OC)-c1c(C)ccc3ccc(C)c-2c13`, for which the GI50 in assay [1] is 19.1 µM (inactive); in assay [2], > 72.6 µM (inactive); in [3] it was > 100 µM (inactive); in assay [4] it was > 100 µM (inactive); in assay [5], 66.4 µM (inactive); in assay [6], 13 µM. Besides, the GI50 in [7] was > 100 µM (inactive); in [8] it was 21 µM (inactive); in assay [9] it was > 55.1 µM (inactive); in assay [10], 26.7 µM (inactive); in assay [11], > 85.9 µM (inactive); in assay [12] it was > 68.5 µM (inactive). Further, the GI50 in assay [13] was > 68.7 µM (inactive); in assay [14], 28.7 µM (inactive); in assay [15] it was 15.6 µM (inactive); in assay [16], 54 µM (inactive); in assay [17], 11.4 µM (inactive); in assay [18], 51.5 µM (inactive). The GI50 is > 74.8 µM (inactive) in assay [19] and 18.4 µM (inactive) in [20].

With `C=C1C2CCC3(CCC4C5(C)CCCC4(C=[N+](CCO)C5)C3C2)C1O` (stereo not given), the GI50 in assay [1] was > 100 µM (inactive); in [2], > 100 µM (inactive); in [3] it was > 100 µM (inactive); in assay [4], > 100 µM (inactive); in assay [5], > 100 µM (inactive); in assay [6] it was above 100 µM. Further, the GI50 in assay [7], in [8], in assay [9], in assay [10], in assay [11] and in assay [12] was > 100 µM (inactive) throughout. The GI50 in [13], in assay [14], in assay [15], in assay [16], in assay [17] and in assay [18] was > 100 µM (inactive) in each case. The GI50 in assay [19] and in [20] was > 100 µM (inactive) in each case.

As to `O=C1Nc2ccccc2/C1=N/NS(=O)(=O)c1ccc(C(=O)O)cc1`, the GI50 is > 100 µM (inactive) in assay [1]; > 100 µM (inactive) in assay [2]; > 100 µM (inactive) in assay [3]; > 100 µM (inactive) in assay [4]; 74.5 µM (inactive) in [5]; above 100 µM in assay [6]. Also, the GI50 in assay [7], in assay [8], in assay [9], in [10], in [11] and in assay [12] was > 100 µM (inactive) each time. Also, the GI50 in assay [13], in assay [14], in [15], in assay [16], in assay [17] and in assay [18] was > 100 µM (inactive) in each case. Moreover, the GI50 in assay [19] and in assay [20] was > 100 µM (inactive) in each case.
